Where a SMILES comes first, the peptide text is derived from it. [ ]: non-standard residue; d: D form. d2Nal = N[C@H](Cc1ccc2ccccc2c1)C(=O)O Some results are limits rather than exact numbers.

This note sets out measurements from patent US6878689B2, “Preventives or remedies for heart failure” (Kaken Pharmaceutical Co., Ltd., priority 2000, dated 2005).

For this data set, the system named is anesthetized open-chest rabbits. The experiment in a line: Effects of intravenously administered pralmorelin on cardiac function of anesthetized open-chest rabbit. Type of data set: in vivo. The method, then: [Test Example 2] Effects of Intravenously Administered Pralmorelin on the Cardiac Function of Rabbit
The effects of pralmorelin on cardiac function were evaluated by measuring various parameters [blood pressure, heart rate, systolic left ventricular pressure (LVPsys), and maximal positive dP/dt (+dP/dtmax) obtained by differentiating the waveform of left ventricular pressure (LVP)]. The value of the maximal positive dP/dt for the left ventricular pressure (+dP/dtmax) is particularly important to determine if the cardiotonic action is sufficient to treat acute heart failure. • 1. Test Substance and Reagent • 1) Test Substance
Pralmorelin dihydrochloride (hereunder referred to as KP-102) (prepared by the method described in WO 9304081) was dissolved in distilled water for injection to prepare a 1.5 mg/mL solution. • 2) Control
Male NZW-strain rabbits (Kitayama Labes) weighing about 2 kg were used in the experiment. After arrival, the animals were allowed to eat a solid meal (Labo R Stock, Oriental Yeast Co., Ltd.) and drink water in a room at a temperature of 20±2° C. and at a humidity of 55±15% under 12-hr light/ dark cycles (from 7:00 to 19:00); the animals were kept under these conditions for at least 6 days before use. • 3. Test Method • 1) Measuring the Cardiac Function of Anesthetized Open-Chest Rabbit
Rabbits were anesthetized by administering 30 mg/kg of sodium pentobarbital into the auricular vein at a slow speed with attention to their breathing. The animals were then fixed in supine position and an endotracheal cannula was inserted. Under artificial respiration (tidal volume, 25 mL/breath; ventilation frequency, 45 breaths/min: SN-480-7 of Shinano Seisakusyo), the chest of each animal was opened by midline incision and the pericardium was incised to expose the heart. The left ventricular pressure (LVP) was measured with a pressure transducer (TP-300T, Nihon Kohden) and a pressure amplifier (AG-610G, Nihon Kohden) as a cannula with syringe was inserted from the cardiac apex into the left ventricle. The waveform of LVP was differentiated with a differentiator unit (ED-601, Nihon Kohden) to determine the maximal positive dP/dt(+dP/dtmax), which was used as an index for cardiac contractility. Blood pressure was measured with a pressure amplifier (AP-610G, Nihon Kohden) via a pressure transducer (TP-300T, Nihon Kohden) connected to a cannula inserted into the left femoral artery. Heart rate was measured with a cardiotachometer (AT-601G, Nihon Kohden) that was driven by counting the pulse waves of LVP. The parameters mentioned above were recorded on a recorder (TA-11, Gould). A cannula was inserted into the left femoral vein so as to assist in the administration of the test substance. The rectum temperature of each animal was controlled at 39° C. with a body temperature controller (TK-43, Asahi Denshi). The anesthetic was added as required but additional anesthetization should be avoided during the measurements. • 2) Groups
After each parameter stabilized, distilled water (0.2 mL/kg) was administered over one minute with an infusion pump (FP-W-100, Toyo Sangyo K.K.) and observations were made for 5 minutes after the administration to see whether the vehicle would have no effect. About 5 minutes after the administration of distilled water, the test substance was administered with an infusion pump in a volume of 0.2 mL/kg over one minute according to the grouping method specified above. Each hemodynamic parameter was measured both before administration and 1, 3, 5, 10, 15, 20 and 25 minutes after administration and the percent changes from the basal values were calculated. In some animals, measurement was conducted until 40 minutes after the administration of the test substance. • 4. Statistical Analysis
The results were each expressed by mean ± standard deviation. Any difference between groups was tested by repeated measures ANOVA (analysis of variance); The significance level was set at 5%. • 5. […]

Setting [1] is: 300 μg/kg i.v. over one minute, n=4, p<0.01 vs control.

Regarding `C[C@H](NC(=O)[C@@H](Cc1ccc2ccccc2c1)NC(=O)[C@@H](C)N)C(=O)N[C@@H](Cc1c[nH]c2ccccc12)C(=O)N[C@H](Cc1ccccc1)C(=O)N[C@@H](CCCCN)C(N)=O` [KP-102, D-alanyl-3-(naphthalen-2-yl)-D-alanyl-L-alanyl-L-tryptophyl-D-phenylalanyl-L-lysinamide] (H-[dA][d2Nal]AW[dF]K-NH2), under “300 μg/kg i.v.”, the “overall effect on heart rate” value is recorded as “little affected” and the “time until blood pressure baseline value practically restored” value is around 25 min. Under setting [1], the “Maximum increase in +dP/dtmax, of the baseline value” came to 22% and the “Maximum increase in LVPsys, of the baseline value” was found to be 13%. Besides, the “drop in heart rate” value (300 μg/kg i.v., 3 minutes after the administration) is listed as 2%. Also, the “increase in heart rate” value (300 μg/kg i.v., 15 minutes after the administration) was 1%. Further, the “increase in heart rate” value (300 μg/kg i.v., 25 minutes after the administration) turned out to be 2%. For the same compound, under “300 μg/kg i.v., LVPsys and +dP/dtmax”, the “period of peak of cardiotonic action” value was in the range of 5 to 10 min. For the same compound, the “time until baseline values of LVPsys and +dP/dtmax restored” value (300 μg/kg i.v., one case with extended monitoring) was at most 40 min. The “effect on mean blood pressure” value (300 μg/kg i.v., p<0.05 vs control) is on record as “significant rise of blood pressure”.
